Target: T1, human SLC26A3 (Homo sapiens, UniProt P40879)
T1 construct: host or cells: COS7 fibroblasts, transient (Lipofectamine 2000), with EYFP-HIF
T1 sequence (P40879 1-764): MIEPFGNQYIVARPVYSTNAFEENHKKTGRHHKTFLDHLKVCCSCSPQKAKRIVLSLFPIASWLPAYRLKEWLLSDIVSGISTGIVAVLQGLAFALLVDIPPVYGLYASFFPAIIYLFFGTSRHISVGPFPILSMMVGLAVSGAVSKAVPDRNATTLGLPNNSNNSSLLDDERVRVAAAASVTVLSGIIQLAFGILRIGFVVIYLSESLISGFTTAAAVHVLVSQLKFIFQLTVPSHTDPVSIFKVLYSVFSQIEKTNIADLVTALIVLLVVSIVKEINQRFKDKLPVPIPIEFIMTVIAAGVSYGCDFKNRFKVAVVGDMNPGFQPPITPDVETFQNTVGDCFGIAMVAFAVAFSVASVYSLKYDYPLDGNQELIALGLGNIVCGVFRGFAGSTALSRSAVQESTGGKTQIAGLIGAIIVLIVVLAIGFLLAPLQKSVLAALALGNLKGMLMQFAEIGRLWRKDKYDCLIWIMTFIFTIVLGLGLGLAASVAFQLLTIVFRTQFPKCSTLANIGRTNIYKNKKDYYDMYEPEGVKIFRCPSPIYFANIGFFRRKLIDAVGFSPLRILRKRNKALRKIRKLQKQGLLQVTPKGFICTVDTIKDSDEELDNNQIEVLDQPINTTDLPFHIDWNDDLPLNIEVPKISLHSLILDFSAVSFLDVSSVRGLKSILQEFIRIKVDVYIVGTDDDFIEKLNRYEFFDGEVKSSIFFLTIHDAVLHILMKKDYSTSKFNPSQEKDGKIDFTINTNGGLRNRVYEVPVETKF
Experiment: SCN− transport YFP quenching assay in SLC26A3-expressing COS7 cells
Assay type: cell-based
Conditions: 25 μM, 30 min; 70 mM SCN− gradient
Experimental: SLC26A3 activity was measured using a SCN^− transport assay that produced YFP fluorescence quenching (FIG. 4B).
SLC26A3-mediated ion transport was measured in COS7 fibroblasts transiently transfected to express EYFP-HIF and human SLC26A3 (Origene, Rockville, Md.). COS7 cells were cultured in DMEM-H21 supplemented with 10% FBS, 2 mM glutamine, 100 U/ml penicillin and […] streptomycin and transfected using Lipofectamine 2000 (Invitrogen, Carlsbad, Calif.). SLC26A3-mediated transport was measured from EYFP-HIF fluorescence after addition of a NaSCN-substituted PBS solution to generate a 70 mM SCN^− gradient. Control experiments were done using COS-7 cells expressing EYFP-HIF alone.

Cn1nc(COc2cccc(F)c2)c2c1CCN(C(=O)Nc1ccc(Cl)cc1)C2 [PDSinh-A01]
inhibition of SLC26A3 SCN− transport (YFP quenching): not significantly inhibited
